Measurements as given in ChEMBL document CHEMBL4152230, “Discovery of N-{3-[(ethanimidoylamino)methyl]benzyl}-l-prolinamide dihydrochloride: A new potent and selective inhibitor of the inducible nitric oxide synthase as a promising agent for the therapy of malignant glioma” (Eur J Med Chem, 2018).
Active and inactive are the calls of the source. No cut-off for these calls is given here.

What was measured:
[1] = molecular target: T1, Nitric oxide synthase, inducible (Mus musculus, UniProt P29477); experiment: Inhibition of recombinant mouse iNOS using [3H]L-arginine as substrate preincubated for 15 mins followed by NADPH addition measured after 20 mins in presence of FMN/FAD by liquid scintillation counting method
T1 sequence (P29477 whole entry): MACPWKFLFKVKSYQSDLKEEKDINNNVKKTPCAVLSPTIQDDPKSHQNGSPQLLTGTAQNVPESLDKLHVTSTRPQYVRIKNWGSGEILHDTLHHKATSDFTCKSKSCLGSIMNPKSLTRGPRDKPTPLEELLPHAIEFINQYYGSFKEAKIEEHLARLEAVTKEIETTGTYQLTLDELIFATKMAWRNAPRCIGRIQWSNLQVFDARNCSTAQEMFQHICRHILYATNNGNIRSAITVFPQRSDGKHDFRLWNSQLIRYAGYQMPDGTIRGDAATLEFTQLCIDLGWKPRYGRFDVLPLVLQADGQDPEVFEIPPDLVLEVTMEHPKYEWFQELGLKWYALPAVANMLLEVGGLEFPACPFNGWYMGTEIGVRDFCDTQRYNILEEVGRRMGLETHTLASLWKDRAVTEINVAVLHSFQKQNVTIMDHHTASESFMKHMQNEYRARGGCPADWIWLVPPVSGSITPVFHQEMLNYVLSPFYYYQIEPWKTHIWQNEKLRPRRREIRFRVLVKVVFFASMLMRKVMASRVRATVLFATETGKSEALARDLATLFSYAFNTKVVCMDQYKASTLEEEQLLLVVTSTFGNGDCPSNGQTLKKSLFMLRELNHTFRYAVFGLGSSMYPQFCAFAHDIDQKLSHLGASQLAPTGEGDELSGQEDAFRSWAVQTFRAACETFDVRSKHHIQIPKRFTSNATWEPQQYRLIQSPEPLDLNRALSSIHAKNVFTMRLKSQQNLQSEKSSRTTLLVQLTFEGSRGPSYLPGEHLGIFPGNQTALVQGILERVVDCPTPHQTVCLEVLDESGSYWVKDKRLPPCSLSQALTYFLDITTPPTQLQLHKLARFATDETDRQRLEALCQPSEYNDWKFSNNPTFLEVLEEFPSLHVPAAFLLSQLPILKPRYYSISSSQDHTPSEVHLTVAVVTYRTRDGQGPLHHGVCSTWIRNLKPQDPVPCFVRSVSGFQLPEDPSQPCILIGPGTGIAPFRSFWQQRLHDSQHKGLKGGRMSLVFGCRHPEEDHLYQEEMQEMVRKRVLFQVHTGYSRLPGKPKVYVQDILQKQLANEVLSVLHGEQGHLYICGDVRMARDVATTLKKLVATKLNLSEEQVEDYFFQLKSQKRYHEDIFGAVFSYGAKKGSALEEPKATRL

[2] = Selectivity index, ratio of IC50 for recombinant bovine eNOS to IC50 for recombinant mouse iNOS
Nitric oxide synthase 3 = molecular target: T2, Nitric oxide synthase 3 (Bos taurus, UniProt P29473); experiment: Inhibition of recombinant bovine eNOS using [3H]L-arginine as substrate preincubated for 15 mins followed by NADPH addition measured after 20 mins in presence of FMN/FAD by liquid scintillation counting method
T2 sequence (P29473 whole entry): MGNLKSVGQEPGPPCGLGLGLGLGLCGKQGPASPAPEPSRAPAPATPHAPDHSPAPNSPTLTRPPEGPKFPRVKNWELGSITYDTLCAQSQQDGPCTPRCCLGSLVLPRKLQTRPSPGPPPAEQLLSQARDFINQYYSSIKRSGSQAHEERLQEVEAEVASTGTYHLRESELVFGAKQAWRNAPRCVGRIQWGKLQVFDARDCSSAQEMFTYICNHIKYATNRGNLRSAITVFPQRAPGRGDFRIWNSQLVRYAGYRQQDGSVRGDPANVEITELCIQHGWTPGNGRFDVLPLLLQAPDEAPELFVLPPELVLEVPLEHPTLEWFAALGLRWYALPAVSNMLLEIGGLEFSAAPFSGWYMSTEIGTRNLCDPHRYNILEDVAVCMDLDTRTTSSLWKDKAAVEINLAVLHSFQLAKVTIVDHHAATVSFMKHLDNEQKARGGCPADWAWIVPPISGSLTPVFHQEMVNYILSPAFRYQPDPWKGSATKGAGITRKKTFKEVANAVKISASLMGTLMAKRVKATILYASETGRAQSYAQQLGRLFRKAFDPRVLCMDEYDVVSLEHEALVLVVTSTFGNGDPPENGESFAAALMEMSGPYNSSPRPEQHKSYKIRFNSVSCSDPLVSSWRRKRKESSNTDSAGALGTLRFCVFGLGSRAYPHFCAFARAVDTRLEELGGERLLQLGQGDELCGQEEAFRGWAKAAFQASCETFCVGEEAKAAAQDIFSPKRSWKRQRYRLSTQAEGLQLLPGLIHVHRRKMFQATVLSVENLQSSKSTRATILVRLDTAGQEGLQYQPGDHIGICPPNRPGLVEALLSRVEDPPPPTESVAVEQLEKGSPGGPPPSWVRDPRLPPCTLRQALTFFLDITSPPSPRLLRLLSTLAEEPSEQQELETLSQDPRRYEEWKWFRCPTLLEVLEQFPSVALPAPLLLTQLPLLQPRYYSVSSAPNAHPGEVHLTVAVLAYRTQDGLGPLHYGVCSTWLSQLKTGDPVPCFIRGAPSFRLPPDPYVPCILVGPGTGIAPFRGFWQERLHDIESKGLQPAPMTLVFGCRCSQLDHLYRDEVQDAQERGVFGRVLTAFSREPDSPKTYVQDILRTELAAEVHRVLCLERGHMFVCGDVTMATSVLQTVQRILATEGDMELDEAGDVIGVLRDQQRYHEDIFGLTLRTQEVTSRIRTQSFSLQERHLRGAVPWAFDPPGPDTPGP

[3] = molecular target: Nitric oxide synthase, inducible (Rattus norvegicus) (UniProt Q06518); experiment: Ex vivo inhibition of iNOS in mesenteric vascular arteries isolated from LPS-induced septic shock Sprague-Dawley rat model assessed as increase in noradrenaline-mediated vasoconstriction by measuring changes in perfusion pressure at 100 uM preincubated for 30 mins followed by noradrenaline treatment
Nitric oxide synthase, inducible (Rattus norvegicus), sequence (Q06518 whole entry, the tested form may be a part): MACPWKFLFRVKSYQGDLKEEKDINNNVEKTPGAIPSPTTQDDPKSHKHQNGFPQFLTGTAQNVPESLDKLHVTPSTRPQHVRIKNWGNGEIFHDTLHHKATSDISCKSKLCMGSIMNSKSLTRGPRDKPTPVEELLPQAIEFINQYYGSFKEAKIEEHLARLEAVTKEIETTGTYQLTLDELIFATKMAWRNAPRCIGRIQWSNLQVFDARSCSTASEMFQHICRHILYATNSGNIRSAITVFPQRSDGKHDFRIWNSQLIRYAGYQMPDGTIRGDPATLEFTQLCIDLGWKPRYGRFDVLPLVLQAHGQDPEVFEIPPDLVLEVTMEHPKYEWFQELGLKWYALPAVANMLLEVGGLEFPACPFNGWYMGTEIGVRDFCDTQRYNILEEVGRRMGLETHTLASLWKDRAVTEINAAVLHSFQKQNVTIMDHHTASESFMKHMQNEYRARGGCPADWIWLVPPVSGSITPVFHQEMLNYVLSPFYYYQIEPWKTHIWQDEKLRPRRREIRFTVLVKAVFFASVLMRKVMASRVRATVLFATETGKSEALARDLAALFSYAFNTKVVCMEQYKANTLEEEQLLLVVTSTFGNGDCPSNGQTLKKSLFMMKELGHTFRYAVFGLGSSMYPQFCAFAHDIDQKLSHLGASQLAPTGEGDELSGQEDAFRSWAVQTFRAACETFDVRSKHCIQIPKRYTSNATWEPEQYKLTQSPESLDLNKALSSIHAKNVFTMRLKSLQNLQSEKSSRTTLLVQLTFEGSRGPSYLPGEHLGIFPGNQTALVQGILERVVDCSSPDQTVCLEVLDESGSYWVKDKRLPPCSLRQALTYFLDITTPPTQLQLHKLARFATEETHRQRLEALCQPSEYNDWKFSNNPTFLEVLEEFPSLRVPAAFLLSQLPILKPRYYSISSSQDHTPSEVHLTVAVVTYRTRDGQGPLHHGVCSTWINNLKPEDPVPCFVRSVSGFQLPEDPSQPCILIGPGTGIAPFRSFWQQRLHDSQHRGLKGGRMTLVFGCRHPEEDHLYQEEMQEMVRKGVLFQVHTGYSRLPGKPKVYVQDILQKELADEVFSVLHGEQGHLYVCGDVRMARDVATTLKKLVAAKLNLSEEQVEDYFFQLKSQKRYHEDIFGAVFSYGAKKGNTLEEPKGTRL

Question: Which IC50 [1] does the source give for `CC(=N)NCc1cccc(CNC(=O)[C@@H](N)CC(C)C)c1` here?
Answer: Its IC50 is 0.253 µM.

Question: What about the Ratio IC50 [2] of the same molecule?
Answer: The Ratio IC50 was 1180.

Question: What about the IC50 (Nitric oxide synthase 3) of the same molecule?
Answer: Its IC50 is 300 µM.

Question: For `CC(=N)NCc1cccc(CNC(=O)[C@@H](N)C(C)C)c1`, which IC50 [1] is on record?
Answer: The IC50 was greater than 10 µM.

Question: Which IC50 [1] does the source give for `CC(=N)NCc1cccc(CNC(=O)[C@@H](N)Cc2ccc(O)cc2)c1` here?
Answer: Its IC50 is greater than 10 µM.

Question: Which results are given for `CC(=N)NCc1cccc(CNC(=O)[C@@H](N)CC(=O)O)c1`?
Answer: IC50 [1]: 1.02 µM; Ratio IC50 [2]: 323; IC50 (Nitric oxide synthase 3): 331 µM

Question: What does the source list for `CC(=N)NCc1cccc(CNC(=O)[C@@H](N)CCC(=O)O)c1`?
Answer: IC50 [1]: 1.23 µM; Ratio IC50 [2]: 8; IC50 (Nitric oxide synthase 3): 10 µM

Question: Which IC50 [1] does the source give for `CC(=N)NCc1cccc(CNC(=O)[C@@H](N)Cc2c[nH]c3ccccc23)c1` here?
Answer: Its IC50 is greater than 10 µM.

Question: With `COC(=O)[C@@H](N)CCCNC(=N)N[N+](=O)[O-]` as the molecule, how does the inhibition [3] read?
Answer: The inhibition was “Active”.

Question: With `CC(=N)NCc1cccc(CNC(=O)[C@@H](N)[C@@H](C)O)c1` as the molecule, how does the IC50 [1] read?
Answer: Its IC50 is greater than 10 µM.

Question: With `CSCC[C@H](N)C(=O)NCc1cccc(CNC(C)=N)c1` as the molecule, how does the IC50 [1] read?
Answer: The IC50 was greater than 10 µM.

Question: For `CC(=N)NCc1cccc(CNC(=O)[C@@H](N)CC(N)=O)c1`, which IC50 [1] is on record?
Answer: The IC50 was greater than 10 µM.

Question: Which results are given for `CC(=N)NCc1cccc(CNC(=O)[C@@H](N)CCCNC(=N)N)c1`?
Answer: IC50 [1]: 0.45 µM; Ratio IC50 [2]: > 2220; IC50 (Nitric oxide synthase 3): > 1000 µM
